In patent publication US6780976B2, “Enone reductases, methods for producing same, and methods for selectively reducing a carbon-carbon double bond of an alpha,beta-unsaturated ketone using the reductases” (Daicel Chemical Industries, Ltd., priority 2001, dated 2004):
Blank lines part the entries; values can stand above or below the molecule they belong to.

Experiments:
[1] = tested on: E. coli HB 101 strain without the plasmid; experiment: Activity of bacterial cell extract of host only (E. coli HB101 without the plasmid) to various substrates; format: biochemical
Procedure: (§1) A reaction mixture containing 50 mM potassium phosphate buffer (pH 6.5), 0.2 mM NADPH, 20 mM methyl vinyl ketone, and the enzyme is reacted at 30° C., and the decrease in absorbance at 340 nm, which is associated with the decrease of the amount of NADPH, is measured. 1 U is defined as the amount of enzyme catalyzing a decrease of 1 μmol NADPH in one minute. Quantitative analysis of the polypeptide is conducted by pigment binding methods using the protein assay kit (Bio-Rad Laboratories Inc.).
(§2) The bacterial cells were harvested by centrifugation, and then, were suspended in 50 mM potassium phosphate buffer (pH8.0) containing 0.02% 2-mercaptoethanol, 2mM PMSF, and 10% glycerin. The cells were treated in a closed-chamber sonicator UCD-200TM (Cosmo Bio) for 3 minutes to crush the cells. The bacterial cell lysate was centrifuged and the supernatant was recovered as bacterial cell extract. The extract was assayed for activities to various types of substrates. In addition, E. coli HB 101 strain without the plasmid was cultured overnight in LB culture medium. 0.1 mM IPTG was added to the culture, and then, was further cultured for 4 hours. The bacterial cells were crushed by the same method as above, and the extract was assayed for the activities to various types of substrates.

enone reductase [2] = experiment: Substrate specificity of purified enone reductase; format: biochemical, Kluyveromyces lactis; conditions: enzyme obtained in Example 1
Procedure: as §1, with “[…],” for “0.2 mM NADPH,”
The enzyme obtained in Example 1 was reacted with various enones, ketones, and aldehydes, and the dehydrogenation activity was assayed. The result was represented by a relative activity, taking the dehydrogenation activity of the enzyme on methyl vinyl ketone as 100, and the results are shown in Table 2.

enone reductase [3] = experiment: Activity of bacterial cell extract of E. coli HB101 (pSE-KLR1) expressing recombinant enone reductase to various substrates; format: biochemical, Kluyveromyces lactis; conditions: for Relative activity: methyl vinyl ketone = 100
Procedure: as §1
E. coli HB101 strain, transformed with plasmid pSE-KLR1 expressing the enone reductase, was cultured overnight in liquid LB medium containing ampicillin at 30° C. 0.1 mM IPTG was added to the culture, and then, was further cultured for 4 hours.
as §2

[4] = Enone reductase activity of cell-free extracts of E. coli JM109 expressing the homologues YNN4, YL60, YCZ2; format: biochemical; conditions: E. coli JM109 with pSE-YNN4, pSE-YL60 or pSE-YCZ2; 0.1 mM IPTG, 4 hours
Procedure: as §1
E. coli JM109 strains, each containing pSE-YNN4, pSE-YL60 or pSE-YCZ2, were cultured in LB culture medium containing ampicillin. The induction of the enzyme was achieved by adding 0.1 mM IPTG and culturing for 4 hours. The bacterial cells were harvested by centrifugation. Respective bacterial cells were suspended in cell lysis buffer (50 mM KPB (pH 8.0), 1 mM EDTA, 0.02% 2-ME, 2 mM PMSF, and 10% glycerol); and the cells were lysed in a sonicator. The supernatant prepared by centrifugation was used as the cell-free extract.
Each of the cell-free extract was assayed for the enone reductase activity. […] Thus, it was verified that all of the three types of homologues of the enzyme of the present invention had the requisite enone reductase activity.

[5] = Methyl vinyl ketone-reducing activity of the purified enzyme (specific activity, pH and temperature dependency); format: biochemical; conditions: after Phenyl-Superose, NADPH
Procedure: as §1
Specific activity of the purified enzyme was about 31.7 U/mg.
The methyl vinyl ketone-reducing activity of the enzyme obtained in Example 1 was tested, by altering the pH of the reaction with potassium phosphate buffer and Britton Robinson buffer. The optimal pH for the reaction was determined to be 6.5 to 7.0.
The methyl vinyl ketone-reducing activity of the enzyme obtained in Example 1 was assayed under standard reaction conditions, with the exception that only the temperatures were altered. The optimal temperature was 37 to 45° C.

[6] = coenzyme NADPH, activity on methyl vinyl ketone taken as 100
[7] = coenzyme NADH, activity on methyl vinyl ketone (NADPH) taken as 100

Molecule: CC=C(C)C(C)=O [3-methyl-3-pentene-2-one]
Specific activity [1]: 0.004 U/mg
Relative activity (enone reductase [2]; [6]): 48%
Specific activity (enone reductase [3]): 2.52 U/mg
Relative activity (enone reductase [3]): 32.4%

Relative activity (enone reductase [2]; [6]): 1%
Molecule: CC(=O)C=O [Methylglyoxal]

Relative activity (enone reductase [2]; [6]): 0%
Molecule: CC1=CCCC1=O [2-methyl-2-cyclopenten-1-one]

Relative activity (enone reductase [2]; [6]): 1%
Molecule: CC(=O)C(C)=O [2,3-butanedione]

Relative activity (enone reductase [2]; [6]): 0%
Molecule: C/C=C/C(=O)O [Crotonic acid]

Relative activity (enone reductase [2]; [6]): 0%
Molecule: CC(=O)c1ccccc1 [Acetophenone]

Molecule: C=CC(=O)CC [Ethyl vinyl ketone]
Specific activity [1]: 0.073 U/mg
Relative activity (enone reductase [2]; [7]): 52%
Relative activity (enone reductase [2]; [6]): 537%
Specific activity (enone reductase [3]): 41.8 U/mg

Molecule: CC(=O)C=C(C)C [4-methyl-3-pentene-2-one]
Relative activity (enone reductase [2]; [6]): 1%

Molecule: CC=CC(C)=O [3-pentene-2-one]
Specific activity [1]: 0.015 U/mg
Relative activity (enone reductase [2]; [6]): 16%
Specific activity (enone reductase [3]): 1.23 U/mg
Relative activity (enone reductase [3]): 15.9%

Molecule: CCC(C)=O [2-butanone]
Relative activity (enone reductase [2]; [6]): 0%

Molecule: C=CC(C)=O [Methyl vinyl ketone]
Specific activity [1]: 0.066 U/mg
Relative activity (enone reductase [2]; [7]): 14%
Relative activity (enone reductase [2]; [6]): 100%
Specific activity (enone reductase [3]): 7.78 U/mg
Relative activity (enone reductase [3]): 100%

Relative activity (enone reductase [2]; [6]): 0%
Molecule: CC1=CC(=O)CC1 [3-methyl-2-cyclopenten-1-one]

B1: YL60: Saccharomyces cerevisiae enone reductase homologue, SEQ ID NO:6, expressed in E. coli from pSE-YL60 (protein)
chain: MAQVAIPETMKAVVIEDGKAVVKEGIPIPELEEGFVLIKTLAVAGNPTDWAHIDYKIGPQGSILGCDAAGQIVKLGPAVNPKDFSIGDYIYGFIHGSSVRFPSNGAFAEYSAISTVVAYKSPNELKFLGEDVLPAGPVRSLEGVATIPVSLTTAGLVLTYNLGLDLKWEPSTPQRKGPILLWGGATAVGQSLIQLANKLNGFTKIIVVASRKHEKLLKEYGADELFDYHDIDVVEQIKHKYNNISYLVDCVANQDTLQQVYKCAADKQDATIVELKNLTEENVKKENRRQNVTIDIIRLYSIGGHEVPFGNITLPADSEARKAAIKFIKFINPKINDGQIRHIPVRVYKNGLCDVPHILKDIKYGKNSGEKLVAVLN
Enone reductase activity of cell-free extract [4]: 0.198 U/mg protein

B2: YCZ2: Saccharomyces cerevisiae enone reductase homologue, SEQ ID NO:8, expressed in E. coli from pSE-YCZ2 (protein)
chain: MKAVVIEDGKAVVKEGVPIPELEEGFVLIKTLAVAGNPTDWAHIDYKVGPQGSILGCDAAGQIVKLGPAVDPKDFSIGDYIYGFIHGSSVRFPSNGAFAEYSAISTVVAYKSPNELKFLGEDVLPAGPVRSLEGAATIPVSLTTAGLVLTYNLGLNLKWEPSTPQRNGPILLWGGATAVGQSLIQLANKLNGFTKIIVVASRKHEKLLKEYGADQLFDYHDIDVVEQIKHKYNNISYLVDCVANQNTLQQVYKCAADKQDATVVELTNLTEENVKKENRRQNVTIDRTRLYSIGGHEVPFGGITFPADPEARRAATEFVKFINPKISDGQIHHIPARVYKNGLYDVPRILEDIKIGKNSGEKLVAVLN
Enone reductase activity of cell-free extract [4]: 0.133 U/mg protein

B3: enzyme obtained in Example 1: NADPH-dependent enone reductase purified from Kluyveromyces lactis IFO 1267; amino acid sequence SEQ ID NO:2 (protein)
chain: MSVPTTQKAVIIEGDKAVVKTDVSVPELKEGTALVKVEAVAGNPTDWKHIAYKIGPEGSILGCDIAGTVVKLGPNASTDLKVGDTGFGFVHGASQTDPKNGAFAEYARVYPPLFYKSNLTHSTADEISEGPVKNFESAASLPVSLTTAGVSLCHHLGSKMEWHPSTPQHTHPLLIWGGATAVGQQLIQVAKHINAYTKIVTVASKKHEKLLKSYGADDVFDYHDAGVIEQIKSKYPNLQHVIDAVGSEDSIPEAYKVTADSLPATLLEVVPMTIESIPEEIRKDNVKIDITLLYRASGQEILLGATRFPASPEYHEATVKFVKFINPHLNNGDIHHMNIKVFSNGLDDVPALTEGIKEGKNKNVKYVARL
Specific activity of the purified enzyme [5]: about 31.7 U/mg

B4: YNN4: Saccharomyces cerevisiae enone reductase homologue, SEQ ID NO:4, expressed in E. coli from pSE-YNN4 (protein)
chain: MSASIPETMKAVVIENGKAVVKQDIPIPELEEGFVLIKTVAVAGNPTDWKHIDFKIGPQGALLGCDAAGQIVKLGPNVDAARFAIGDYIYGVIHGASVRFPSNGAFAEYSAISSETAYKPAREFRLCGKDKLPEGPVKSLEGAVSLPVSLTTAGMILTHSFGLDMTWKPSKAQRDQPILFWGGATAVGQMLIQLAKKLNGFSKIIVVASRKHEKLLKEYGADELFDYHDADVIEQIKKKYNNIPYLVDCVSNTETIQQVYKCAADDLDATVVQLTVLTEKDIKEEDRRQNVSIEGTLLYLIGGNDVPFGTFTLPADPEYKEAAIKFIKFINPKINDGEIHHIPVKVYKNGLDDIPQLLDDIKHGRNSGEKLVAVLK
Enone reductase activity of cell-free extract [4]: 0.268 U/mg protein
